Measurements from publication PMC10294832, “Investigation of Naphthyl–Polyamine Conjugates as Antimicrobials and Antibiotic Enhancers” (Antibiotics, 2023).
Converted amounts (≈) assume the structure as drawn. “And” between values parts separate entries of the source, which are not always exact repeats. Identical values can stand only once.

Legend:
MRSA (CF-Marseille) [1] = test: Real-time growth inhibition curves / MIC; assay type: cell-based, methicillin-resistant Staphylococcus aureus; details: Staphylococcus aureus, 18-hour mark of real-time growth curve
Procedure: (§1) To conduct a detailed analysis of the antibacterial activity and initial assessment of the mechanism of action, analogue 20f was selected due to its strong antibacterial properties, and because it was devoid of any observed cytotoxic or hemolytic effects. To evaluate the kinetics of antibacterial activity, real-time growth inhibition curves were measured for two Gram-positive bacteria (S. aureus (ATCC 25923), MRSA (CF-Marseille)) and the Gram-negative bacterium E. coli (ATCC 25922). […] These values corresponded to the inhibitory concentrations observed at the 18-hour mark in the real-time growth inhibition curve plots.
(§2) Solutions of compound 20f at concentrations of 2, 4, and 16 µg/mL were each tested in triplicate against S. aureus (ATCC 25923), MRSA (CF-Marseille), and E. coli (ATCC 25922) following previously reported protocols.

[2] = tested on: K. pneumoniae (ATCC 700603); test: Antimicrobial MIC, K. pneumoniae; assay type: cell-based; details: Klebsiella pneumoniae, ATCC700603, mean (n = 2)
E. coli (ATCC 25922) [3] = test: Real-time growth inhibition curves / MIC; assay type: cell-based; details: Escherichia coli, ATCC25922, 18-hour mark of real-time growth curve
Procedure: as §1, §2

S. aureus (ATCC 25923) [4] = test: Real-time growth inhibition curves / MIC; assay type: cell-based; details: Staphylococcus aureus, ATCC25923, 18-hour mark of real-time growth curve
Procedure: as §1, §2

Cytotoxicity assay = assay type: cell-based, human; details: human, HEK293 human embryonic kidney cells, concentration at 50% cytotoxicity on HEK293 cells; mean (n = 2)
Procedure: Cytotoxicity assays were conducted using the protocols previously reported.

MRSA (CF-Marseille) [5] = test: Minimum bactericidal concentration test; assay type: cell-based, methicillin-resistant Staphylococcus aureus; details: Staphylococcus aureus, same value as MIC
Procedure: as §1
(§3) MBC’s were determined following previously reported protocols.

C. albicans (ATCC 90028) = test: Antifungal MIC, C. albicans; assay type: cell-based; details: Candida albicans, ATCC90028, mean (n = 2)
Outline: (§4)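 In-house testing to a published method gave the antibacterial MICs, with antibiotics included for comparison; the Candida and Cryptococcus MICs were obtained through CO-ADD's standard screen.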

[6] = tested on: P. aeruginosa (PAO1 or ATCC 27853); test: Antimicrobial MIC, P. aeruginosa; assay type: cell-based; details: Pseudomonas aeruginosa; P. aeruginosa (PAO1 or ATCC 27853); mean (n = 3); read-out: MIC P. a
Outline: as §4

human red blood cells = test: Hemolytic assay; assay type: cell-based; details: concentration at 10% hemolytic activity on human red blood cells; mean (n = 2)
Procedure: Hemolysis assays were conducted using the protocols previously reported.

[7] = tested on: P. aeruginosa (ATCC 27853); test: Enhancement of doxycycline activity; assay type: cell-based, Pseudomonas aeruginosa; details: for Dox/P.a: concentration required to restore doxycycline activity (combination MIC): doxycycline fixed at 4.5 µM (2 µg/mL), P. aeruginosa (ATCC 27853); for Dox/P.a fold change: ratio between intrinsic MIC of test compound and combination MIC, doxycycline 4.5 µM, P. aeruginosa
E. coli (ATCC 25922) [8] = test: Enhancement of erythromycin activity; assay type: cell-based, Escherichia coli; details: for Eryth/E.c: concentration required to restore erythromycin activity (combination MIC): erythromycin fixed at 10.9 µM (8 µg/mL), E. coli (ATCC 25922); for Eryth/E.c fold change: ratio between intrinsic MIC of test compound and combination MIC, erythromycin 10.9 µM, E. coli
Procedure: Restoring enhancer concentrations were determined using previously reported protocols.

[9] = tested on: A. baumannii (ATCC 19606); test: Antimicrobial MIC, A. baumannii; assay type: cell-based, Acinetobacter baumannii; details: Acinetobacter baumannii, ATCC19606, A. baumannii (ATCC 19606); mean (n = 2)
[10] = tested on: S. aureus (ATCC 25,923 or ATCC 29213); test: Antimicrobial MIC, S. aureus; assay type: cell-based, Staphylococcus aureus; details: Staphylococcus aureus, mean (n = 3)
Outline: as §4

E. coli (ATCC 25922) [11] = test: Minimum bactericidal concentration test; assay type: cell-based; details: Escherichia coli, ATCC25922, same value as MIC
Procedure: as §1, §3

S. aureus (ATCC 25923) [12] = test: Minimum bactericidal concentration test; assay type: cell-based; details: Staphylococcus aureus, ATCC25923, same value as MIC
Procedure: as §1, §3

[13] = tested on: C. neoformans (ATCC 208821); test: Antifungal MIC, C. neoformans; assay type: cell-based, Cryptococcus neoformans; details: Cryptococcus neoformans, ATCC208821, C. neoformans (ATCC 208821); mean (n = 2)
Outline: as §4

E. coli (ATCC 25922) [14] = test: Antimicrobial MIC, E. coli; assay type: cell-based, Escherichia coli; details: mean (n = 2)
Outline: as §4

MRSA (ATCC 43300) [15] = test: Antimicrobial MIC, MRSA; assay type: cell-based, methicillin-resistant Staphylococcus aureus; details: Staphylococcus aureus, MRSA (ATCC 43300); mean (n = 2); read-out: MIC MRSA
[16] = tested on: P. aeruginosa (ATCC 27853); parameters: method as in PMID 36982955; details: earlier work; cited from earlier work
[17] = tested on: S. aureus (ATCC 25,923 or ATCC 29213); parameters: method as in PMID 36982955; details: earlier work; cited from earlier work
E. coli (ATCC 25922) [18] = tested on: E. coli (ATCC 25922); parameters: method as in PMID 36982955; details: earlier work; cited from earlier work
MRSA (ATCC 43300) [19] = tested on: MRSA (ATCC 43300); parameters: method as in PMID 36982955; details: earlier work; cited from earlier work
[20] = Escherichia coli, ATCC25922, E. coli (ATCC 25922)

SMILES | MIC [2] [µM] | IC50 (Cytotoxicity assay) [µM] | MIC (C. albicans (ATCC 90028)) [µM] | MIC [6] [µM] | Hemolysis HC10 (human red blood cells) [µM] | Dox/P.a: concentration required to restore doxycycline activity (combination MIC) [7] [µM] | Dox/P.a fold change [7] [fold] | Eryth/E.c: concentration required to restore erythromycin activity (combination MIC) (E. coli (ATCC 25922) [8]) [µM] | Eryth/E.c fold change (E. coli (ATCC 25922) [8]) [fold] | MIC [9] [µM] | MIC [10] [µM] | MIC [13] [µM] | MIC (E. coli (ATCC 25922) [14]; [20]) [µM] | MIC (MRSA (ATCC 43300) [15]) [µM] | melting point [°C] | further results
O=C(CCC(=O)Nc1ccc2ccccc2c1)NCCCNCCCCCCCCCCCCNCCCNC(=O)CCC(=O)Nc1ccc2ccccc2c1.O=C(O)C(F)(F)F.O=C(O)C(F)(F)F [Compound 20f, N^1,N^12-Bis(3-(4-(naphthalen-2-ylamino)-4-oxobutanamido)propyl)dodecane-1,12-diaminium 2,2,2-trifluoroacetate] | > 32 | > 32.2 | > 32 | > 100 | >32.2 | 12.6 | > 8 | 3.15 | 2 | > 32 | 3.12 | ≤ 0.25 | 6.3 to 12.5 | ≤ 0.25 |  | MIC (MRSA (CF-Marseille) [1]): 3.15 µM and 3.13 µg/mL; MIC (E. coli (ATCC 25922) [3]): 6.29 µM and 6.25 µg/mL; MIC (S. aureus (ATCC 25923) [4]): 3.15 µM and 3.13 µg/mL; MBC (MRSA (CF-Marseille) [5]): 3.13 µg/mL and 3.15 µM; MBC (E. coli (ATCC 25922) [11]): 6.29 µM and 6.25 µg/mL; MBC (S. aureus (ATCC 25923) [12]): 3.15 µM and 3.13 µg/mL; MIC (E. coli (ATCC 25922) [14]; E. coli (ATCC 25922)): 6.3 µM
O=C(CCC(=O)Nc1ccc(-c2ccccc2)cc1)NCCCNCCCCCCNCCCNC(=O)CCC(=O)Nc1ccc(-c2ccccc2)cc1.O=C(O)C(F)(F)F.O=C(O)C(F)(F)F [Compound 21b, N^1,N^6-Bis(3-(4-([1,1’-biphenyl]-4-ylamino)-4-oxobutanamido)propyl)hexane-1,6-diaminium 2,2,2-trifluoroacetate] | > 33.3 | > 33.3 | > 33.3 | 300 | >33.3 | 300 | 1 | 300 | 1 | > 33.3 | 300 | > 33.3 | 300 | 2.08 | 200 to 202 | 
O=C(CCC(=O)Nc1ccc(-c2ccccc2)cc1)NCCCNCCCCCCCNCCCNC(=O)CCC(=O)Nc1ccc(-c2ccccc2)cc1.O=C(O)C(F)(F)F.O=C(O)C(F)(F)F [Compound 21c, N^1,N^7-Bis(3-(4-([1,1’-biphenyl]-4-ylamino)-4-oxobutanamido)propyl)heptane-1,7-diaminium 2,2,2-trifluoroacetate] | > 32.8 | > 32.8 | > 32.8 | 300 | >32.8 | 300 | 1 | 300 | 1 | > 32.8 | 200 | > 32.8 | 300 | 0.256 | 178 to 180 | 
O=C(CC(c1ccccc1)c1ccccc1)NCCCNCCCCCCCCNCCCNC(=O)CC(c1ccccc1)c1ccccc1 [Compound 6] |  |  |  |  |  |  |  |  |  |  |  |  |  |  |  | MIC in combination, doxycycline vs. P. aeruginosa [16]: 12.5 µM; fold increase, doxycycline vs. P. aeruginosa [16]: 4 fold; MIC Staphylococcus aureus [17]: 3.13 µM (≈ 2.11 µg/mL); MIC Escherichia coli (E. coli (ATCC 25922) [18]): 2.2 µM (≈ 1.48 µg/mL); MIC MRSA (MRSA (ATCC 43300) [19]): ≤ 0.28 µM
